From the CombiSolv-Exp solvation set (Vermeire and Green 2021)

Assay: solvent given as SMILES

Nc1ccc([N+](=O)[O-])cc1Cl
Conditions	solvation free energy, 298 K [kcal/mol]
in O	-8.74

CCCCC(=O)CCCC
Conditions	solvation free energy, 298 K [kcal/mol]
in O	-2.64

Cc1cc(NS(=O)(=O)c2ccc(N)cc2)no1
Conditions	solvation free energy, 298 K [kcal/mol]
in O	-17.8

CCCOC(=O)CCC
Conditions	solvation free energy, 298 K [kcal/mol]
in O	-2.28

CCNc1nc(NC(C)C(C)C)nc(SC)n1 (stereo not drawn)
Conditions	solvation free energy, 298 K [kcal/mol]
in O	-8.73

c1ccc2c(c1)Nc1ccccc1S2
Conditions	solvation free energy, 298 K [kcal/mol]
in C1CCOC1	-14.7
in C1COCCO1	-14.4
in CC(C)(C)O	-12.7
in CC(C)CC(C)(C)C	-10.9
in CC(C)CC(C)O	-12.6
in CC(C)CCO	-12.8
in CC(C)CO	-12.6
in CC(C)O	-12.8
in CC(C)OC(C)C	-12.8
in CCC(C)CO	-12.7
in CCC(C)O	-12.8
in CCCC(C)CO	-12.8
in CCCC(C)O	-12.8
in CCCCC(CC)CO	-12.7
in CCCCCC	-11.1
in CCCCCCC	-11.2
in CCCCCCCC	-11.2
in CCCCCCCCCC	-11.2
in CCCCCCCCCCO	-13
in CCCCCCCCO	-13.1
in CCCCCCCO	-13.1
in CCCCCCO	-13.1
in CCCCCO	-13.1
in CCCCO	-13.1
in CCCCOCCCC	-12.7
in CCCO	-13.1
in CCCOC(C)=O	-13.9
in CCO	-13.2
in CCOCC	-13.5
in CO	-13.1
in COC(C)(C)C	-13.4

CC1CCC(C(C)C)C(O)C1 (stereo not drawn)
Conditions	solvation free energy, 298 K [kcal/mol]
in O	-3.2

O=NN1CCCCC1
Conditions	solvation free energy, 298 K [kcal/mol]
in O	-6.34

CCc1cccs1
Conditions	solvation free energy, 298 K [kcal/mol]
in O	-0.93

ClC(Cl)(Cl)Cl
Conditions	solvation free energy, 298 K [kcal/mol]
in Brc1cccc2ccccc12	-3.92
in C1CCCC1	-4.4
in C1CCOC1	-4.65
in C1COCCO1	-4.32
in C=CCCCCCCCCCCCCCC	-3.81
in CC#N	-3.66
in CC(=O)CC(C)C	-4.22
in CC(=O)N(C)C	-4.52
in CC(=O)OCc1ccccc1	-3.97
in CC(C)(C)O	-3.74
in CC(C)=O	-4.15
in CC(C)CCCC(C)CCCC(C)CCCCC(C)CCCC(C)CCCC(C)C	-3.74
in CCC(C)=O	-4.15
in CCCCCC	-4.14
in CCCCCCC	-4.09
in CCCCCCCC	-3.98
in CCCCCCCCC=CCCCCCCCC(=O)OCC(COC(=O)CCCCCCCC=CCCCCCCCC)OC(=O)CCCCCCCC=CCCCCCCCC	-4
in CCCCCCCCCCCCCC	-3.8
in CCCCCCCCCCCCCCCC	-3.85
in CCCCCCCCCOC(=O)c1ccccc1C(=O)OCCCCCCCCC	-3.85
in CCCCCCCCN(CCCCCCCC)CCCCCCCC	-3.79
in CCCCCCCCO	-3.79
in CCCCCCO	-3.84
in CCCCCN(CCCCC)CCCCC	-3.96
in CCCCCl	-4.28
in CCCCN(C=O)CCCC	-4.11
in CCCCN(CCCC)CCCC	-3.84
in CCCCO	-3.87
in CCCCOC	-4.39
in CCCCOC(C)=O	-4.26
in CCCCOCC	-4.29
in CCCCOCCCC	-4.16
in CCCO	-3.75
in CCCOCCC	-4.25
in CCO	-3.74
in CCOC(=O)c1ccccc1C(=O)OCC	-3.77
in CCOC(C)=O	-4.23
in CCOCC	-4.41
in CI	-4.51
in CN1CCCC1=O	-4.16
in CNC(C)=O	-3.9
in CO	-3.66
in CS(C)=O	-3.66
in CSC	-4.63
in Cc1ccc(C)cc1	-4.35
in Cc1cccc(C)c1	-4.29
in Cc1ccccc1C	-4.34
in ClC(Cl)Cl	-4.43
in ClCCCl	-4.15
in NC=O	-2.16
in O	0.07
in O=C1CCCCC1	-4.32
in S=C=S	-4.52
in [2H]O[2H]	-0.62
in c1ccc2ncccc2c1	-4.07

C1CCNCC1
Conditions	solvation free energy, 298 K [kcal/mol]
in C1CCOC1	-5.22
in C1COCCO1	-4.95
in COC(C)(C)C	-4.87
in O	-5.11
